Our source for the Triple point temperature values is the NIST ThermoML archive (doi:10.1021/acs.jced.7b00489).

For the data set the following is noted: Crystal; DSC.

Numbers after ± are expanded uncertainties.

Take `O=C(c1cc(Cc2n[nH]c(=O)c3ccccc23)ccc1F)N1CCN(C(=O)C2CC2)CC1` [olaparib]: the Triple point temperature came out at 471.65 ± 1.8 K.
